Measurements: patent US5886025A, “Anti-mitotic agents which inhibit tubulin polymerization” (Baylor University, priority 1997, dated 1999)
In brackets after ≈: the same amount, converted by molar mass. Entries after “also recorded” stand apart in the source; their conditions may differ. Where a name gives a salt, the structure may show the parent alone. Read-outs that look alike come from different tables or passages of the source.

Tests used:
tubulin [1] = experiment: tubulin polymerization assay; type: biochemical, bovine
Procedure: The ability of the various above described compounds to inhibit tubulin polymerization can be determined by in vitro assay. A suitable assay system is that described by Bai et al A method for purifying tubulin from bovine brain cells is described by Hamel and Lin.
IC50 values for tubulin polymerization were determined according to the procedure described in Bai et al. Purified tubulin is obtained from bovine brain cells as described in Hamel and Lin. Various amounts of inhibitor were preincubated for 15 minutes at 37° C. with purified tubulin. After the incubation period, the reaction was cooled and GTP was added to induce tubulin polymerization. Polymerization was then monitored in a Gilford spectrophotometer at 350 nm. The final reaction mixtures (0.25 ml) contained 1.5 mg/ml tubulin, 0.6 mg/ml microtubule-associated proteins (MAPs), 0.5 mM GTP, 0.5 mM MgCl2, 4% DMSO and 0.1M 4-morpholineethanesulfonate buffer (MES, pH 6.4).

P388 leukemia cells = experiment: cytotoxic assay with P388 leukemia cells; type: cell-based; conditions: for IC50: Mus musculus
Text: The tubulin polymerization compounds can also be tested for their ability to inhibit tumor cell growth.

tubulin [2] = conditions: cited from earlier work
tubulin [3] = conditions: cis or Z form vs trans or E; cited from earlier work
[4] = treatment of Chagas' disease, cited from earlier work
estrogen = conditions: cited from earlier work
[5] = relative to tamoxifen; cited from earlier work
[6] = P388, read-out: ED50 (effective dosage required to inhibit 50% of cell growth)

| Compound | inhibition of tubulin polymerization (tubulin [1]) | activity against P388 leukemia cells (P388 leukemia cells; P388 leukemia cells) | IC50 (P388 leukemia cells; [6]) | further results |
| --- | --- | --- | --- | --- |
| COc1ccc(-c2sc3cc(OC)ccc3c2C(=O)c2c(OC)cccc2OC)cc1 [2,6-dimethoxybenzoyl, 3-(2', 6'-dimethoxybenzoyl)-2-(4'-methoxyphenyl)-6-methoxybenzo[b]thiophene] | no observable tubulin polymerization inhibition activity; also recorded: failed to inhibit tubulin polymerization | failed to show measurable activity |  | IC50 (P388 leukemia cells; read-out: ED50 (effective dosage required to inhibit 50% of cell growth), P388 leukemia cells): > 100 µg/mL |
| COc1cc2c(cc1O)CC[C@@H]1[C@@H]2CC[C@]2(C)[C@@H](O)CC[C@@H]12 [2-methoxyestradiol] |  |  |  | inhibition of tubulin polymerization (tubulin [2]): viable inhibitor of tubulin polymerization |
| COc1ccc(-c2sc3cc(OC)ccc3c2C(=O)c2cc(OC)c(O)c(OC)c2)cc1 [3,5-dimethoxy-4-hydroxybenzoyl] | no observable tubulin polymerization inhibition activity; also recorded: failed to inhibit tubulin polymerization | failed to show measurable activity | > 100 µg/mL |  |
| COc1ccc(-c2sc3cc(OC)ccc3c2C(=O)c2cc(OC)cc(OC)c2)cc1 [3,5-dimethoxybenzoyl, 3-(3',5'-dimethoxybenzoyl)-2-(4'-methoxyphenyl)-6-methoxybenzo[b]thiophene] | no observable tubulin polymerization inhibition activity; also recorded: failed to inhibit tubulin polymerization | failed to show measurable activity | > 100 µg/mL |  |
| COc1ccc(/C=C\c2cc(OC)c(OC)c(OC)c2)cc1N(Cc1ccccc1)Cc1ccccc1 [5-[(Z)-2-(3',4',5'-trimethoxyphenyl)ethenyl]-2-methoxy-N,N-bis-(phenylmethyl)aniline, reference compound] |  |  | 33.9 µg/mL (≈ 68.4 µM) |  |
| COc1ccc(/C=C\c2cc(OC)c(OC)c(OC)c2)cc1O [Combretastatin A-4] |  |  |  | binding affinity for tubulin, cis (Z) form compared to trans (E) counterpart (tubulin [3]): much higher binding affinity for tubulin |
| O=C(Cn1ccnc1[N+](=O)[O-])NCc1ccccc1 [benznidazole] |  |  |  | genotoxicity in children [4]: may also cause genotoxicity in children; adverse effects [4]: thrombocytopenic purpura and polyneropathy |
| CC1CS(=O)(=O)CCN1/N=C/c1ccc([N+](=O)[O-])o1 (stereo not drawn) [nifurtimox] |  |  |  | genotoxicity in children [4]: may also cause genotoxicity in children; adverse effects [4]: thrombocytopenic purpura and polyneropathy |
| CC/C(=C(\c1ccccc1)c1ccc(OCCN(C)C)cc1)c1ccccc1 [tamoxifen] |  |  |  | intrinsic estrogen agonist properties (estrogen): retain some intrinsic estrogen agonist properties |
| COc1ccc(C2=C(C(=O)c3ccc(OCCN4CCCC4)cc3)c3ccccc3CC2)cc1 [trioxifene mesylate] |  |  |  | anti-tumor effects compared with tamoxifen [5]: anti-tumor effects at the same or higher level as tamoxifen |
